Here are results for three compounds from patent US20220354998A1, “HYDROGEL-FILLED MICRONEEDLE ARRAYS AND USES THEREOF” (University of Connecticut, priority 2021, published 2022).

Series [1] is described as follows: Dual-drug release from multi-length MNA into two-gel skin model. In kind it is physicochemical. The conditions noted are these: 1% alginate, 16 h. On the procedure:
Evaluation of Dual-Drug Release Capability. For the dual release, MNAs with 4.2 mm long and 2 mm short needles were separately loaded with a 1% (m/v) alginate solution in DPBS containing ˜46 μg/mL of Rh-B, ˜1010 μg/mL of BSA-FITC, or no added analyte. Four combinations of analyte-loaded alginate MNAs were tested: (1) long needles loaded with Rh-B and short needles loaded with BSA-FITC (Rh-B/FITC), (2) long needles loaded with Rh-B and short needles blank (Rh-B/Blank), (3) long needles blank and short needles loaded with BSA-FITC (Blank/FITC), and (4) both lengths blank (Blank/Blank). The gels were crosslinked as previously mentioned and ran in quintuplicate. The needles were inserted into a two-gel skin model that include a 2 mm thick 3% (m/v) low-gelling agarose cast on top of a 3 mm thick 10% (m/v) porcine gelatin in 12 well plates. Both solutions were prepared in PBS. […] The collected gels were melted and the amount of Rh-B and BSA-FITC was quantified using a BioTek Cytation 5 plate reader at an excitation/emission of 546/568 and 495/520 nm, respectively.
An additional release experiment was conducted to evaluate the performance of the MNA at the dual-delivery of drugs. […] Following the release, the gel layers were separated, melted, and read in a plate reader for their Rh-B and BSA-FITC content. […] The measured release results are quantified in FIG. 5C, FIG. 5D, and FIG. 13. […]

In series [2] the test system is Human umbilical vein endothelial cells (HUVECs). The series can be described thus: In vitro scratch assay on cultured HUVECs. Type of series: cell-based. As to the method: In Vitro Scratch Assay. Human umbilical vein endothelial cells (HUVECs) (Sigma-Aldrich) were cultured in EGM™ Endothelial Cell Growth Medium BulletKit™ (Lonza) complete medium. At their fifth passage, the HUVECs were detached using trypsin-EDTA (0.1% w/v), resuspended in the growth medium, and seeded at a concentration of 50,000 cells per well into a 12-well tissue culture plate that was coated with a thin layer of Geltrex® hESC-Qualified, Ready-To-Use, Reduced Growth Factor Basement Membrane Matrix (Gibco®). The Geltrex® layer was formed by diluting by a factor of 2 in the basal endothelial medium and seeding in empty wells. […]
A scratch was created in the confluent HUVECs by lightly dragging a P200 pipette tip across the bottom of the well. […] The concentration of VEGF in the MNA+VEGF group was calculated so that if total VEGF release occurred, the concentration of VEGF in the well would match the concentration of the positive control (50 ng/mL). […] The area of scratch closure for each time point was calculated using ImageJ (NIH, Bethesda, Md.) and compared for relative area change to 0 h.
The ability of the platform to preserve the bioactivity of encapsulated therapeutics was assessed by loading vascular endothelial growth factor (VEGF), an important angiogenic factor. […] Three different groups were evaluated: MNA−VEGF, MNA+VEGF, and a positive control. […]

As to `CCN(CC)c1ccc2c(-c3ccccc3C(=O)O)c3ccc(=[N+](CC)CC)cc-3oc2c1.[Cl-]` [Rh-B, Rhodamine B], in series [1] (long needles (4.2 mm)), the “Rh-B signal by gel layer” value is on record as “stronger in the gelatin”. “BSA fluorescein isothiocyanate conjugate [BSA-FITC]”: the “BSA-FITC signal by gel layer” value in series [1] (short needles (2 mm)) is reported as “greater BSA-FITC signal in the top, agarose layer”. Regarding “vascular endothelial growth factor [VEGF]”, the “healing potential (gap closure)” value in series [2] (after 8 h of culture, HUVEC scratch, n=4) is “cells nearly closed the gap in its entirety”. The “effect on HUVEC migration” value in series [2] (scratch assay) was “positive effect”.
